Source: article PMC5487681, “Identification of Antifungal H^+-ATPase Inhibitors with Effect on Plasma Membrane Potential” (Antimicrobial Agents and Chemotherapy, 2017)
≈ marks a conversion by molar mass, not a printed value. Read-outs that look alike come from different tables or passages of the source. Residues, ends and D or L forms follow the SMILES beside them.

What was measured:
[1] = biological target: T1, Na^+,K^+-ATPase (Sus scrofa, UniProt P05024); experiment: ATP hydrolysis assay, Na+,K+-ATPase; type: biochemical, porcine
T1 construct: from tissue; host or cells: porcine kidney (gift of Natalya Fedosova, Aarhus University)
Experimental: (§1) Rabbit sarcoplasmic reticulum membranes containing sarcoplasmic endoplasmic reticulum Ca^2+-ATPase (SERCA) were kindly provided by Claus E. Olesen and Jesper V. Møller, Aarhus University, and prepared as described in reference. Porcine kidney Na^+,K^+-ATPase was kindly provided by Natalya Fedosova, Aarhus University, and prepared as described in reference.
(§2) The protein activity levels were determined by measuring the amount of free phosphate produced from the ATP hydrolysis reaction. The assay was performed as described in reference. Each well contained ATPase enzyme, 2 μl of inhibitor (usually in the range of 333 to 0.01 μM) dissolved in dimethyl sulfoxide (DMSO) (Duchefa Biochemie, Haarlem, The Netherlands), and an assay buffer dependent on the enzyme for a final volume of 60 μl. Possible compound precipitation in the assay buffer was monitored using a Nephelostar plate reader measuring turbidity, and the information was taken into account in the IC50 determination. Pma1 assay buffer consisted of 20 mM 3-(N-morpholino)propanesulfonic acid (MOPS)–NaOH, pH 6.5 or 7.0, 8 mM MgSO4, 50 mM KNO3 (a vacuolar ATPase inhibitor), 25 mM sodium azide (a mitochondrial ATPase inhibitor), and 250 μM sodium molybdate (an acid phosphatase inhibitor). SERCA buffer consisted of 9 mM MOPS-NaOH, pH 7, 2.7 mM MgCl2, 90 μM CaCl2, and 72 mM KCl. Na^+,K^+-ATPase buffer consisted of 30 mM MOPS-NaOH, pH 7, 40 mM NaCl, 4 mM MgCl2, and 20 mM KCl. The concentration of protein was adjusted to obtain a signal of the optical density at 860 nm (OD860) of between 0.5 and 1.0 in the untreated samples (for all Pma1 batches, ∼1 to 2 μg/well; for SERCA and Na^+,K^+-ATPase, ∼0.1 to 0.2 μg/well).

[2] = biological target: Ca^2+-ATPase (SERCA1a) (Oryctolagus cuniculus, UniProt P04191); experiment: ATP hydrolysis assay, SERCA; type: biochemical, rabbit
Experimental: as §1, §2

[3] = Compound precipitation in the fungal growth medium; type: physicochemical; conditions: fungal growth medium (RPMI), footnotes of Table 1
Experimental: (§3) The following fungal isolates were used: Saccharomyces cerevisiae ATCC 9763, Candida albicans SC5314, Candida parapsilosis ATCC 22019, Candida tropicalis Ct016, Candida glabrata ATCC 90030, Aspergillus fumigatus ATCC 13073, and Aspergillus flavus ATCC MYA-1005. Frozen stocks of yeast isolates in glycerol (final concentration, 20%) were prepared by growing the cells to log phase in YPD medium at 30°C and 150 rpm. Frozen stocks of mold spores were prepared by harvesting spores from 7-day-old potato glucose agar plates in phosphate-buffered saline, 0.1% Tween 80 and aliquoting these spores in the presence of glycerol (final concentration, 20%). The cells were stored at −80°C. The cells or spores were thawed and diluted to a final concentration of 0.5 × 10^5 to 2.5 × 10^5 CFU/ml in sterile Milli-Q H2O. […] The plate was incubated for 20 to 24 h at 34°C (72 h for molds), and the OD490 was measured on a Victor X5 (PerkinElmer) plate reader. Mold growth assay plates were also visually inspected. The MIC was defined as the lowest concentration inhibiting the visual growth of the microorganism. Standard errors were typically below 5%.

[4] = test system: Aspergillus flavus ATCC MYA-1005; experiment: microbe, parasite or virus in culture; type: cell-based; conditions: read-out: MIC for growth inhibition, A. flavus
Experimental: as §3

[5] = test system: Saccharomyces cerevisiae ATCC 9763; experiment: microbe, parasite or virus in culture; type: cell-based; conditions: read-out: MIC for growth inhibition, S. cerevisiae
Experimental: as §3

[6] = test system: Hep-G2 cells; experiment: cells; type: cell-based, human
Experimental: In a tissue culture-treated 96-well plate (catalog number 655180; Grenier), 10,000 human hepatocyte Hep-G2 cells (catalog number 85011430; Sigma-Aldrich) were plated in 200 μl growth medium (Eagle minimal essential medium; catalog number M2279; Sigma-Aldrich), 2 mM L-glutamine (catalog number 03-020-1B; Biological Industries), 1% nonessential amino acids (catalog number XC-E1154/100; Biosera), 10% fetal bovine serum (catalog number BI-04-007-1A; Biological Industries) and incubated overnight at 37°C in 5% CO2. On the next day, fresh growth medium plus 2 μl compound in DMSO was added. The plate was incubated for a further 24 h at 37°C in 5% CO2. The medium was replaced with 100 μl freshly prepared 0.5 mg/ml 2,3-bis(2-methoxy-4-nitro-5-sulfophenyl)-5-[(phenylamino)carbonyl]-2H-tetrazolium hydroxide, sodium salt, solution (catalog number X4251; Sigma-Aldrich) in RPMI 1640 medium (catalog number R7509; Sigma-Aldrich) with 3.83 μg/ml phenazine methosulfate (catalog number P9625; Sigma-Aldrich) and incubated for 2 to 3 h at 37°C in 5% CO2. The color reaction was measured on a Victor X5 plate reader (PerkinElmer) by determination of the OD450 and the half-maximal (50%) effective concentration (EC50) was calculated.

[7] = Table 1, ATP hydrolysis at pH 7.4 (compounds marked b), read-out: IC50 Na^+,K^+-ATPase
[8] = Table 2, pH 7, n = 2, porcine kidney, read-out: IC50 for ATP hydrolysis, Na^+,K^+-ATPase
[9] = Table 2, pH 7, n = 2, rabbit SERCA1a, read-out: IC50 for ATP hydrolysis, SERCA
[10] = Table 1, ATP hydrolysis at pH 7, read-out: IC50 Na^+,K^+-ATPase
[11] = Saccharomyces cerevisiae, ATCC9763, Table 3
[12] = Homo sapiens, HepG2, 24 h, medium with 10% fetal bovine serum, XTT readout, read-out: EC50 for Hep-G2 cells at 24 h

Chain of Ca^2+-ATPase (SERCA1a) (P04191 1-994 isoform P04191-2): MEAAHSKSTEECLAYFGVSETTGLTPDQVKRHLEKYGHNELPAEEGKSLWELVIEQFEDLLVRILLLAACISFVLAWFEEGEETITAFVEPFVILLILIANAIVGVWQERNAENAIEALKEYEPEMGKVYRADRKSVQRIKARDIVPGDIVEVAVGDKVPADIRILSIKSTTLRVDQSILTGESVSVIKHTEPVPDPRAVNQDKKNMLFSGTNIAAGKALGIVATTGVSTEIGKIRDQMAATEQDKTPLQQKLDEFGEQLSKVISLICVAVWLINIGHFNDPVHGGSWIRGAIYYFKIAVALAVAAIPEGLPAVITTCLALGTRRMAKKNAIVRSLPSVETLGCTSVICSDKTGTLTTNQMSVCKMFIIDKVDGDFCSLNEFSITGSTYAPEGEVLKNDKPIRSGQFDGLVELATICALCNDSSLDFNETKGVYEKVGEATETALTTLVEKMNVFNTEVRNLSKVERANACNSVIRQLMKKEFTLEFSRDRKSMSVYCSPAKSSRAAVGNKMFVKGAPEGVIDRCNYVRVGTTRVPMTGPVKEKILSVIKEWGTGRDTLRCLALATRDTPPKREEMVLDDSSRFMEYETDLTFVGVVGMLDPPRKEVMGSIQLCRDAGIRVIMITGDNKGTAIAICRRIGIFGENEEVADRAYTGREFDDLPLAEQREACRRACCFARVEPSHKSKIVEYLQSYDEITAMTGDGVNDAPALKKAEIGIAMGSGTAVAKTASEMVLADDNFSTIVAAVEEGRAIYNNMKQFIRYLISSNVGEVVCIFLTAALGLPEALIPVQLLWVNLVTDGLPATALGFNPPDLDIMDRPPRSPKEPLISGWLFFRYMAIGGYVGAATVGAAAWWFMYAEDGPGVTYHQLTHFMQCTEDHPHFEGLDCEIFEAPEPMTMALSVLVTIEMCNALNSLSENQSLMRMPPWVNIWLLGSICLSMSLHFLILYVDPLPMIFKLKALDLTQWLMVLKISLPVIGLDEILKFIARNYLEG

Structure (SMILES)	IC50 [2] [µM]	Compound precipitation observed in the growth medium at concentrations down to [3]	IC50 [1, 8] [µM]	IC50 [1, 10] [µM]	MIC ([4]; Aspergillus flavus, Table 3) [µM]	MIC [5, 11] [µM]	EC50 [6, 12] [µM]	further results
O=C1/C(=C/c2ccc(-c3cc(Cl)ccc3Cl)o2)C=C(c2ccccc2)N1c1ccccc1O [Compound 1]	17.5 ± 4.7	c Compound precipitation was observed in the growth medium at concentrations down to 15 μM.	–	–	–	–	–	IC50 [1, 7]: 13.2 ± 0.91 µM
[O]=[V]([O-])([O-])[O-] [Vanadate, reference compound]	–	–	0.006 ± 0.001	–	–	–	–	IC50 [2, 9]: 10.4 ± 2.4 µM; MIC ([4]; Table 3): >750 µM; MIC ([5]; Table 3): >750 µM; EC50 ([6]; 24 h, medium with 10% fetal bovine serum, XTT readout, read-out: EC50 for Hep-G2 cells at 24 h): > 500 µM
CCOc1ccc2nc3cc(NC(=O)c4cccc(Br)c4)ccc3c(N)c2c1 [Compound 5]	0.46 ± 0.04	f Compound precipitation was observed in the growth medium at concentrations down to 75 μM.	–	–	–	–	–	IC50 [1, 7]: 1.3 ± 0.3 µM
COc1ccc(Cn2c(SCc3cc(C)ccc3C)nc3cc(OC)c(OC)cc3c2=N)cc1 [Compound 12]	–	e Compound precipitation was observed in the growth medium at concentrations down to 150 μM.	–	58.7 ± 40.2	–	–	–	–
COc1cccc(Nc2nc(Cl)nc(Nc3cccc(OC)c3)n2)c1 [Compound 9]	> 105	d Compound precipitation was observed in the growth medium at concentrations down to 48 μM.	–	> 105	–	–	–	–
CCN(CC)CCCNc1nc(SC)nc2c1sc1nc(-c3ccccc3)c3c(c12)CCC3 [Compound 19]	–	–	5.5 ± 1.8	–	12 (≈ 5.73 µg/mL)	3.7 (≈ 1.77 µg/mL)	24.2 ± 0.5	IC50 [2, 9]: 4.4 ± 0.3 µM; Toxicity window between C. albicans and Hep-G2 cells ([6]; human, 24 h): 3 fold
N=C(N)NCCC[C@@H](N)C(=O)N[C@H](CCCNC(=N)N)C(=O)N[C@H](CCCNC(=N)N)C(=O)N[C@H](Cc1ccccc1)C(=O)N[C@H](Cc1c[nH]c2ccccc12)C(=O)N[C@H](Cc1c[nH]c2ccccc12)C(=O)N[C@H](Cc1ccccc1)C(=O)N[C@H](CCCNC(=N)N)C(=O)N[C@H](CCCNC(=N)N)C(=O)N[C@H](CCCNC(=N)N)C(N)=O [BM2, reference compound] (HELM PEPTIDE1{[dR].[dR].[dR].[dF].[dW].[dW].[dF].[dR].[dR].[dR].[am]}$$$$V2.0)	1.1	–	–	–	–	–	–	IC50 [1]: 10.4 ± 2.7 µM; MIC ([4]; ATCC MYA-1005): >150 µM; MIC ([5]; ATCC 9763): 4.7 µM (≈ 7.62 µg/mL); Effect on mammalian Hep-G2 cells [6]: no effect; EC50 ([6]; 24 h): > 100 µM
Oc1cccc(Nc2nc(-c3ccc(Cl)c(Cl)c3)cs2)c1 [Compound 7]	–	d Compound precipitation was observed in the growth medium at concentrations down to 48 μM.	–	–	–	–	–	IC50 [1, 7]: 5.8 ± 0.8 µM
CN(C)CCCNc1ncnc2c1sc1nc(N3CCCCC3)c3c(c12)CCCC3 [Compound 16]	11.1	–	9.1 ± 1	–	47 (≈ 20 µg/mL)	3.2 (≈ 1.36 µg/mL)	2.6 ± 0.9	–
COc1ccc(-c2cc(C(=O)Nc3ccc4c(c3)OCCO4)c3ccccc3n2)c(OC)c1 [Compound 8]	> 105	d Compound precipitation was observed in the growth medium at concentrations down to 48 μM.	–	> 105	–	–	–	–
COc1ccc(-c2cc(C(=O)Nc3ccc(C(C)C)cc3)c3ccccc3n2)c(OC)c1 [Compound 3]	> 105	e Compound precipitation was observed in the growth medium at concentrations down to 150 μM.	–	> 105	–	–	–	–
CCCCOc1ccc(C2C(C#N)=C(N)Oc3cc(O)ccc32)cc1 (centres unmarked) [Compound 11]	15.7 ± 2	d Compound precipitation was observed in the growth medium at concentrations down to 48 μM.	–	30.3 ± 2.4	–	–	–	–
CC1CCCCN1CC(O)Cn1c(-c2ccccc2)c(-c2ccccc2)c2ccc3ccccc3c21 (centres unmarked) [Compound 4]	4.1 ± 0.2	d Compound precipitation was observed in the growth medium at concentrations down to 48 μM.	–	–	–	–	–	IC50 [1, 7]: 15 ± 7.2 µM
CCCCc1nc2sc3c(NCCCN(C)C)nc(SC)nc3c2c2c1CCC2 [Compound 15]	–	–	4.1 ± 0.6	–	24 (≈ 10.3 µg/mL)	1.5 (≈ 0.644 µg/mL)	2.8 ± 0.1	IC50 [2, 9]: 4.5 µM
Cc1c(-c2ccccc2)[o+]c2ccccc2c1C#Cc1ccccc1 [Compound 6]	–	d Compound precipitation was observed in the growth medium at concentrations down to 48 μM.	–	–	–	–	–	IC50 [1, 7]: 3.5 ± 3.7 µM
O=c1c2ccccc2[se]n1-c1ccccc1 [Ebselen, reference compound]	–	–	0.16 ± 0.01	–	24 (≈ 6.58 µg/mL)	7.5 (≈ 2.06 µg/mL)	10.7 ± 7	IC50 [2, 9]: 0.12 µM
CCc1nc2sc3c(NCCCN(C)C)ncnc3c2c2c1CCCC2 [Compound 17]	> 333	–	> 333	–	> 150	47 (≈ 17.4 µg/mL)	5.8 ± 1.1	–
CCCCc1nc2sc3c(NCCCN(C)C)ncnc3c2c2c1CCCC2 [Compound 14]	42 ± 8	–	–	18.4 ± 2.1	75 (≈ 29.8 µg/mL)	7.5 (≈ 2.98 µg/mL)	2.3	–
CN(C)CCCNc1ncnc2c1sc1nc(-c3ccccc3)c3c(c12)CCC3 [Compound 18]	69.5 ± 6.9	–	85.7 ± 26.6	–	> 75	24 (≈ 9.69 µg/mL)	3.6 ± 1.1	–
